Common to all, as to assay: DTP human tumour cell line panel, 48 h
Assay [1] concerns COLO 205 colon.
The subject of assay [2] is HCT-116 colon.
Assay [3] deals with HOP-62 NSCLC.
The test system of assay [4] is HT29 colon.
For assay [5], the system named is IGROV1 ovarian.
Assay [6] relates to K-562 leukemia.
For assay [7], the system named is MOLT-4 leukemia.
In assay [8] the test system is OVCAR-3 ovarian.
In assay [9] the test system is OVCAR-5 ovarian.
Assay [10] has as its system SF-268 CNS.
In assay [11] the test system is SF-539 CNS.
The test system of assay [12] is SK-MEL-28 melanoma.
Assay [13] relates to SK-OV-3 ovarian.
The test system of assay [14] is SNB-19 CNS.
In assay [15] the test system is SNB-75 CNS.
The subject of assay [16] is U251 CNS.
In assay [17] the test system is UACC-257 melanoma.
Assay [18] deals with UO-31 renal.
Assay [19] relates to HCT-15 colon.

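Cultured in 96-well plates, cells were exposed to test compound for 48 hours across five concentrations. Definition used: TGI = concentration required for complete inhibition of growth.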 Where a SMILES comes first, the peptide text is derived from it. [ ]: non-standard residue; d: D form.

What is called TGI is the concentration at which net growth stops.

Regarding `CCC1NC(N=Nc2ccc([N+](=O)[O-])cc2)(P(=O)(OC(C)C)OC(C)C)OC1=O` (configuration not stated), the TGI in assay [1], in assay [2], in assay [3], in [4], in assay [5] and in assay [6] was more than 100 µM in each case. Moreover, the TGI in [7], in assay [8], in [9], in assay [10], in assay [11] and in assay [12] was more than 100 µM each time. In addition, the TGI was more than 100 µM in assay [13]; more than 100 µM in [14]; 97.4 µM in assay [15]; more than 100 µM in [16]; more than 100 µM in assay [17]; more than 100 µM in assay [18].

As for `CC(C)C[C@H](NC(=O)[C@H](CC(C)C)NC(=O)[C@@H](Cc1c[nH]c2ccccc12)NC(=O)[C@H](Cc1ccccc1)NC(=O)[C@@H](Cc1c[nH]c2ccccc12)NC(=O)[C@H](CCC(N)=O)NC(=O)[C@H](CCC(N)=O)NC(=O)[C@H]1CCCN1C(=O)[C@@H](N)CCCCN)C(N)=O` (H-K[dP]QQ[dW]F[dW]LL-NH2), the TGI in assay [1], in [2], in assay [19], in [3], in [4] and in [5] was more than 100 µM each time. In addition, the TGI in [6], in assay [7], in [8], in assay [9], in assay [10] and in assay [11] was more than 100 µM throughout. The TGI in assay [12], in assay [13], in assay [14], in assay [15], in [16] and in assay [17] was more than 100 µM each time. For the same compound, the total growth inhibition concentration (TGI) in assay [18] is more than 100 µM.

Turning to `Cc1ccc2c(=O)c3ccccc3sc2c1`, the TGI in assay [1], in assay [2], in assay [3], in [4], in assay [5] and in [6] was more than 100 µM each time. In addition, the concentration for total growth inhibition (TGI) in [7], in [8], in assay [9], in [10], in assay [11] and in [12] was more than 100 µM each time. For the same compound, the total growth inhibition concentration (TGI) in assay [13], in assay [14], in assay [16] and in assay [18] was more than 100 µM in each case.

As to `CC(=O)Nc1cccc(N=NN(C)C)c1`, the TGI in assay [1], in [2], in [19], in assay [3], in assay [4] and in [5] was more than 100 µM throughout. For the same compound, the TGI in assay [6], in assay [7], in assay [8], in [9], in assay [10] and in assay [11] was more than 100 µM in each case. The TGI in [12], in assay [13], in [14], in [15], in [16] and in assay [17] was more than 100 µM each time. Also, in assay [18], the TGI was more than 100 µM.

`CC(C)NC(=O)OCc1c2c(n(C)c1COC(=O)NC(C)C)-c1ccccc1CC2`: the TGI is 21.6 µM in assay [1]; 23.2 µM in assay [2]; 27.2 µM in [19]; 18.6 µM in assay [3]; 30.3 µM in assay [4]; 29.2 µM in assay [5]. Further, the TGI in assay [6] was more than 38.5 µM; in [7], 8.95 µM; in assay [8], 27.3 µM; in [9] it was 31.6 µM; in [10], 28.8 µM; in assay [11], 34.3 µM. The TGI turned out to be 26.2 µM in assay [12]; 42.6 µM in [13]; 35.2 µM in [14]; 29.4 µM in [15]; 22.5 µM in [16]; 29.7 µM in [17]. This compound yielded a TGI in [18] of 32.4 µM.

For the compound `O=[N+]([O-])c1ccc(NNN=Nc2ccc(-c3nc4ccccc4s3)cc2)c([N+](=O)[O-])c1`, the TGI in assay [1] was 31.5 µM; in [2], 33.8 µM; in assay [19] it was 66.4 µM; in assay [3], 48.4 µM; in assay [4] it was 41.3 µM; in [5], 49.5 µM. The TGI was 86.2 µM in assay [6]; 53.5 µM in [7]; 46.7 µM in assay [8]; 71.5 µM in assay [9]; more than 100 µM in assay [10]; 42.4 µM in assay [11]. Also, the TGI is more than 100 µM in assay [12]; more than 100 µM in [13]; more than 100 µM in assay [14]; 82.1 µM in assay [15]; 76.3 µM in assay [16]; 36 µM in [17]. The same compound gave a TGI in assay [18] of 51.3 µM.

As for `O=C(O)C1CCCCN1c1ccccc1[N+](=O)[O-]` (configuration not stated), the TGI in assay [2], in [19], in [3], in assay [4], in assay [5] and in assay [6] was more than 100 µM in each case. In addition, the TGI in [7], in assay [8], in assay [9], in [10], in [11] and in assay [13] was more than 100 µM each time. Also, the TGI in assay [14], in assay [15], in [16], in assay [17] and in assay [18] was more than 100 µM throughout.

These data come from PubChem BioAssay (NCI).
